Experiments:
[1] = target: T1, BtGH84 (Bacteroides thetaiotaomicron, UniProt Q89ZI2); assay: Isothermal titration calorimetry (ITC); type: binding; details: 25°C
T1 construct: made in house
Method: (§1) AC50 measurements of fragment activators were performed using a fluorescent kinetic assay. Assays were carried out in a 96 well plate (Black Nunc F96 MicroWell Plates) at 25°C in a total volume of 100 μl per well, buffer (50 mM MES pH 6.5, 200 mM NaCl, 0.01% Tween-20, 1% DMSO) with 500 μM 4-methylumbelliferyl-β-D-GlcNAc (4MU-GlcNAc), as substrate and 50 nM BtGH84. Reactions were initiated by addition of 10 μl of substrate, to a final concentration of 500 μM, followed by 5 s of shaking. Fluorescent 4-methylumbelliferyl release was recorded continuously at 355 nm excitation and 460 nm emission for 20 s using a BMG PolarStar Optima plate reader. Rates were calculated using Sigmaplot as the slope of the curve of the collected data. Corrections were made to the detected gradients to adjust for the inner filter effect of 4MU-GlcNAc and convert the gradients into units of μmol min-1 according to a standard curve of 4MU. The initial slopes were fitted to four-parameter sigmoidal dose response curves using SigmaPlot and the AC50 values extracted. […]
Apparent KM and Vmax values were calculated from a Michalis-Menten curve fit to 8-10 point substrate titrations at a constant concentration of the activator. […]

[2] = target: T1, BtGH84; assay: 4MU-GlcNAc cleavage assay (fluorescent kinetic enzyme activity assay); type: biochemical; details: in the presence of 4mM activator 2 versus absence
Method: as §1, with “4MU.” for “4MU. The initial slopes were fitted to four-parameter sigmoidal dose response curves using SigmaPlot and the AC50 values extracted.”
Kinetic experiments using 4MU-GlcNAc were carried out in an analogous manner except that reactions were initiated by a 10 μl injection of BtGH84, to a final concentration of 50 nM, in a well containing the substrate at the desired concentration. Values quoted throughout are mean and standard deviation of three independent […]
Apparent KM and Vmax values were calculated from a Michalis-Menten curve fit to 8-10 point substrate titrations at a constant concentration of the activator. The covariation experiments used the same range of substrate concentrations across an activator concentration range of 50 µM to 2 mM. The data obtained from these experiments was fit to the nonessential activator equation: […]
Here, [S] is the concentration of the […], [A] the concentration of the activator, α modifies KM, β modifies Vmax and KA is the half-max concentration of the activator. […]

[3] = target: T1, BtGH84; assay: Differential scanning fluorimetry (DSF); type: binding; details: melting temperature of BtGH84; PUGNAc 200 μM
Method: constant (Ka) were obtained from this fitting, and were used to calculate the Gibbs free energy (ΔG) and […]
Crystallisation and structure determination
BtGH84 crystals were grown using the sitting-drop vapour diffusion method. 1 μl of 12 mg/ml BtGH84 was mixed with 1 μl of reservoir solution (0.1 M imidazole pH 8.0, 10% PEG8000 (w/v), 3% trimethylamine N-oxide dehydrate, 12% ethylene glycol) and the crystals were allowed to grow at room temperature for at least 2 days. Crystal soaking was performed by gradually adding well solution containing 10 mM PUGNac and 50 mM activator 2, and 10% DMSO. Crystals were picked up with a nylon fibre loop (Hampton Research) and plunged into liquid nitrogen. Data were collected at Diamond beamline I04 using a Pilatus 6M-F detector (Dectris) at 100 K. An oscillation range of 0.1° degree was chosen and 180° were collected. Data were indexed, integrated and scaled using XDS.[5] Indexing was chosen to be consistent with previous collected data using Pointless[6] and a direct refinement of the model against the data was carried out. […] The quality of the final model was evaluated using the MolProbity-Server.[10] […]
DSF experiments were performed in 96-well polypropylene PCR plates (Agilent 401334) with a final well volume of 25 µl. […] Data was analysed with a combination of the Agilent MxPro software, MTSA,[11] and the DSF analysis spreadsheet in Excel.[12] […]

T1 sequence (Q89ZI2 22-737, change not shown): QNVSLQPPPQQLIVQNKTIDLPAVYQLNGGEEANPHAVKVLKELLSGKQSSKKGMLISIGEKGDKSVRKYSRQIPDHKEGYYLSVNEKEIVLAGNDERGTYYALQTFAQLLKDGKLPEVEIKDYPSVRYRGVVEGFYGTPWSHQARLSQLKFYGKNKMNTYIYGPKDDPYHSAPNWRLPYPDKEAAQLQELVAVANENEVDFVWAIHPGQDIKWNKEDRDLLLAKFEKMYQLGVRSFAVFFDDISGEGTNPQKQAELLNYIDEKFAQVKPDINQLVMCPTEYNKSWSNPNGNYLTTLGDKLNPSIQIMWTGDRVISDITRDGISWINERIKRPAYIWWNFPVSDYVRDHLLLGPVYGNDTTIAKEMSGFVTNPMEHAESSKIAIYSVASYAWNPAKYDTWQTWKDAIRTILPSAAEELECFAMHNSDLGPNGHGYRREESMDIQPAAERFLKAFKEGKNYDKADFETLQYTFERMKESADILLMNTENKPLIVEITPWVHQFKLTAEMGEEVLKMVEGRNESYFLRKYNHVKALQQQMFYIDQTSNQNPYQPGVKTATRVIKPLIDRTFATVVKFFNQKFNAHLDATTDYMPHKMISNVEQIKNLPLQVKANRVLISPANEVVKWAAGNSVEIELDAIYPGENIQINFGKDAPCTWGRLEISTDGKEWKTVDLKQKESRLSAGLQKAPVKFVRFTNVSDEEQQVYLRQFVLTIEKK

SMILES: CC(=O)N[C@H]1/C(=N/OC(=O)Nc2ccccc2)O[C@H](CO)[C@@H](O)[C@@H]1O [PUGNAc, O-(2-Acetamido-2-deoxy-D-glucopyranosylidene) amino-Z-N-phenylcarbamate]
- Kd ([1]; in the absence of 2): 3900 ± 120 nM
- Kd ([1]; in the presence of 2 (10 mM)): 1100 ± 240 nM
- IC50 (change) [2]: reduced
- increase of Tm [3]: 3 °C

Reference: paper PMC4501319, “Discovery of Selective Small-Molecule Activators of a Bacterial Glycoside Hydrolase” (Angewandte Chemie (International Ed. in English), 2014)
